These are literature values, as cited in paper PMC2796837 (Journal of biological inorganic chemistry : JBIC : a …, 2008).

Structures are written as SMILES. Where two headings read alike, the source gives them in different places.

For series [1] the following is noted: I = 1.0 M KCl, 25°C.
The conditions of series [2]: I = 1.0 M KCl, 25°C. The source holds these as a separate data set.
The conditions of series [3]: I = 1.0 M KCl, 25°C. This is another data set of the same source.
The conditions of series [4]: I = 1.0 M KCl, 25°C. This is another data set of the same source.
For series [5] the following is noted: I = 1.0 M KCl, 25°C. The source holds these as a separate data set.
For series [6] the following is noted: I = 1.0 M KCl, 25°C. This is another data set of the same source.
For series [7] the following is noted: I = 1.0 M KCl, 25°C. The source holds these as a separate data set.
For series [8] the following is noted: I = 1.0 M KCl, 25°C. This is another data set of the same source.
For series [9] the following is noted: I = 1.0 M KCl, 25°C. This is another data set of the same source.
The conditions of series [10]: I = 1.0 M KCl, 25°C. The source holds these as a separate data set.
For series [11] the following is noted: I = 1.0 M KCl, 25°C. This is another data set of the same source.
For series [12] the following is noted: Ce^3+ complex.
The conditions of series [13]: I = 1.0 M and 25 °C.

`O=C(O)CN1CCN(CC(=O)O)CCN(CC(=O)O)CCN(CC(=O)O)CC1` [DOTA]: in [1], the “log K1^H” value is 12.60, the “log K2^H” value is 9.70, the “log K3^H” value is recorded as 4.50 and the “log K4^H” value is given as 4.14. Besides, in series [1], the “log K5^H” value is reported as 2.32. Also, the “log KMgL” value in series [2] is 11.15. In [3], the “log KCaL” value is 16.37. For the same molecule, the “log KCuL” value in series [4] is given as 22.72. In addition, the “log KZnL” value in series [5] is given as 18.17. Further, the “log KML, Ce^3+” value in [6] is given as 23.4. Moreover, the “log KML, Nd^3+” value in [7] is given as 23.0. In series [8], the “log KML, Eu^3+” value was 23.5. Also, the “log KML, Dy^3+” value in series [9] is 24.8. Moreover, the “log KML, Yb^3+” value in series [10] was 25.0. Moreover, the “log KML, Lu^3+” value in [11] was 25.4. Further, the “k1 (proton assisted dissociation rate constant)” value in [12] is 0.0008 M⁻¹ s⁻¹.

Regarding `O=C([O-])CN1CCN(CC(=O)[O-])CCN(C(CO)C(O)CO)CCN(CC(=O)[O-])CC1.[Gd+3]` (centres unmarked) [GdDO3A-butrol], the LD50 is 23 mmolkg^−1.

As for `CC(O)CN1CCN(CC(=O)[O-])CCN(CC(=O)[O-])CCN(CC(=O)[O-])CC1.[Gd+3]` (centres unmarked) [GdHP-DO3A], the LD50 is recorded as 12 mmolkg^−1.

In the case of `CN1CCNCC1` [N-methylpiperazine], the “log K1^H” value in series [13] was 4.83.

As for `C1CNCCN1` [piperazine], the “log K1^H” value in series [13] is on record as 6.04.
